Test systems include NCI-H522 lung; SK-OV-3 ovarian; MOLT-4 leukemia; SF-295 CNS; CCRF-CEM leukemia; SNB-19 CNS; KM12 colon; OVCAR-5 ovarian; NCI-H226 lung; MDA-N; SR leukemia; ACHN renal; PC-3 prostate; NCI/ADR-RES ovarian; NCI-H23 lung; MDA-MB-231 breast; OVCAR-4 ovarian; HL-60(TB) leukemia; MALME-3M melanoma; HCC-2998 colon.
Holding throughout (assay): DTP human tumour cell line panel, 48 h

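Where inhibition never reached the appropriate level, the endpoint shown equals the highest concentration tested. Otherwise, values were interpolated linearly from a five-concentration, 48-hour dose response in 96-well plates. TGI: total growth inhibition.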

In the case of `CN(CCC(=O)O)C1=Nc2ccc(Cl)cc2C(c2ccccc2)=[N+]([O-])C1`, the TGI in the test with NCI-H522 lung, with SK-OV-3 ovarian, with MOLT-4 leukemia, in the test with SF-295 CNS, in the test with CCRF-CEM leukemia and in the test on SNB-19 CNS was above 100 µM throughout. The TGI with KM12 colon, in the test with OVCAR-5 ovarian, with NCI-H226 lung, with MDA-N, with SR leukemia and in the test with ACHN renal was above 100 µM throughout. Besides, the concentration for total growth inhibition (TGI) in the test on PC-3 prostate, in the test on NCI/ADR-RES ovarian, with NCI-H23 lung, with MDA-MB-231 breast, in the test on OVCAR-4 ovarian and in the test on HL-60(TB) leukemia was above 100 µM each time. Also, the TGI with MALME-3M melanoma was above 100 µM.
As to `NCCCCC(NC(=O)C(N)Cc1ccc(O)cn1)C(=O)O` (centres undefined), the TGI in the test on NCI-H522 lung, in the test on MOLT-4 leukemia, in the test with SF-295 CNS, in the test with CCRF-CEM leukemia, with HCC-2998 colon and with SNB-19 CNS was above 100 µM in each case. The TGI in the test with KM12 colon, in the test on OVCAR-5 ovarian, in the test with NCI-H226 lung, with MDA-N, with SR leukemia and in the test with ACHN renal was above 100 µM in each case. Further, the TGI with PC-3 prostate, with NCI/ADR-RES ovarian, with NCI-H23 lung, in the test with MDA-MB-231 breast, in the test on OVCAR-4 ovarian and in the test on HL-60(TB) leukemia was above 100 µM throughout. The compound further had a concentration for total growth inhibition (TGI) in the test with MALME-3M melanoma above 100 µM.
For `COC(=O)/C=C(/C=C1/C(C#N)=C(N)N(c2ccc(Cl)cc2)C1(C)/C(=C/C(=O)OC)C(=O)OC)C(=O)OC` (centres undefined), the TGI in the test on NCI-H522 lung, in the test on SK-OV-3 ovarian, in the test on MOLT-4 leukemia, with SF-295 CNS, in the test on CCRF-CEM leukemia and in the test with HCC-2998 colon was above 100 µM throughout. The TGI in the test with SNB-19 CNS, in the test on OVCAR-5 ovarian, in the test on MDA-N, in the test on SR leukemia, in the test on ACHN renal and with PC-3 prostate was above 100 µM throughout. In addition, the TGI in the test on NCI/ADR-RES ovarian is above 100 µM; in the test on NCI-H23 lung, above 100 µM; with MDA-MB-231 breast it was above 100 µM; with OVCAR-4 ovarian, above 100 µM; in the test with HL-60(TB) leukemia, 41.8 µM; in the test on MALME-3M melanoma, above 100 µM.
With `Cc1ccc([N+](=O)[O-])cc1S(=O)(=O)Nc1ccc(C2=NN(c3ccc([N+](=O)[O-])cc3[N+](=O)[O-])C(c3cccs3)C2)cc1` (centres undefined), the TGI in the test with NCI-H522 lung was 39 µM; in the test on SK-OV-3 ovarian it was 77.9 µM; with MOLT-4 leukemia, 53.3 µM; in the test with SF-295 CNS, above 100 µM; in the test on CCRF-CEM leukemia it was above 100 µM; with SNB-19 CNS it was above 100 µM. The TGI in the test with KM12 colon is 55.6 µM; in the test on OVCAR-5 ovarian, above 100 µM; with NCI-H226 lung it was 60.1 µM; in the test on MDA-N, 31.4 µM; in the test with SR leukemia, 58.6 µM; with ACHN renal it was 81.6 µM. In addition, the TGI with PC-3 prostate is above 100 µM; in the test with NCI/ADR-RES ovarian, 41.4 µM; in the test with NCI-H23 lung, 44.1 µM; in the test with MDA-MB-231 breast, 50.8 µM; in the test on OVCAR-4 ovarian, 77.3 µM; in the test with HL-60(TB) leukemia it was 62.9 µM. In the test with MALME-3M melanoma, this compound yielded a TGI of 94.7 µM.
Consider `c1ccc2c(c1)CC1=C(O2)c2ccccc2OC1`, for which the concentration for total growth inhibition (TGI) with NCI-H522 lung is 44.5 µM; in the test on SK-OV-3 ovarian it was above 100 µM; in the test on MOLT-4 leukemia it was 80.1 µM; in the test with SF-295 CNS it was above 100 µM; with CCRF-CEM leukemia it was above 100 µM; in the test on HCC-2998 colon, 42.2 µM. The TGI is above 100 µM with KM12 colon; above 100 µM with OVCAR-5 ovarian; above 100 µM in the test on NCI-H226 lung; 45.5 µM in the test with MDA-N; above 100 µM in the test on SR leukemia; above 100 µM in the test on ACHN renal. The TGI is above 100 µM with PC-3 prostate; above 100 µM in the test on NCI/ADR-RES ovarian; above 100 µM in the test on NCI-H23 lung; 76.2 µM in the test with MDA-MB-231 breast; 88.2 µM with OVCAR-4 ovarian; above 100 µM in the test with MALME-3M melanoma.
Regarding `O=C(O)COCC(=O)N(CCOCCN(Cc1ccccc1)C(=O)COCC(=O)O)Cc1ccccc1`, the TGI in the test with NCI-H522 lung, in the test with SK-OV-3 ovarian, in the test with MOLT-4 leukemia, in the test with SF-295 CNS, in the test with CCRF-CEM leukemia and in the test on HCC-2998 colon was above 100 µM in each case. In addition, the TGI in the test on SNB-19 CNS, with KM12 colon, in the test on OVCAR-5 ovarian, in the test with NCI-H226 lung, in the test on MDA-N and with SR leukemia was above 100 µM in each case. For the same compound, the TGI in the test with ACHN renal, in the test on PC-3 prostate, in the test on NCI/ADR-RES ovarian, with NCI-H23 lung, with MDA-MB-231 breast and with HL-60(TB) leukemia was above 100 µM each time. For the same compound, the TGI in the test with MALME-3M melanoma was above 100 µM.
Consider `COc1cc(/C=N\N(C)C)cc(/C=N/N(C)C)c1O`, for which the TGI in the test with NCI-H522 lung is above 100 µM; in the test on SK-OV-3 ovarian, 55.4 µM; in the test with SF-295 CNS it was 8.9 µM; with CCRF-CEM leukemia it was 72.4 µM; in the test on SNB-19 CNS it was above 100 µM; in the test with KM12 colon, above 100 µM. Besides, the TGI in the test with NCI-H226 lung was 50.6 µM; in the test on MDA-N, above 100 µM; in the test on SR leukemia, 32.3 µM; in the test with ACHN renal it was 87.9 µM; with PC-3 prostate, 96.2 µM; in the test on NCI/ADR-RES ovarian it was above 100 µM. Besides, the TGI with NCI-H23 lung was above 100 µM; with MDA-MB-231 breast it was 80 µM; with OVCAR-4 ovarian, above 100 µM; in the test on HL-60(TB) leukemia, above 100 µM; in the test with MALME-3M melanoma, 56 µM.

A word on the TGI: it is the concentration at which net growth stops. A high value points to less potent growth arrest.
